Measured values: patent publication US9789149B2, “Vegetation water composition for treatment of inflammatory skin conditions” (CreAgri, Inc., priority 2005, dated 2017)

What was measured:
[1] = test system: erythema nodosum; test: Example 1: patient with erythema nodosum treated with vegetation water composition tablets; type: in vivo, human; details: 5 mg predonine for nearly 2.3 years
Method: In studies conducted in support of the invention, compositions comprised of the vegetation water composition were prepared and administered to test subjects, as set forth in Examples 1-6. Briefly, the pitted pulp of olives was masticated and pressed to produce a liquid-phase mixture and solid by-products. The solid by-products were separated and removed from the liquid-phase mixture by filtration and centrifugation. The liquid-phase mixture was allowed to rest to allow the oil and aqueous fractions to segregate. The aqueous phase was decanted and acidified with citric acid to adjust the pH between 2 and 4. The acidified aqueous fraction was concentrated by distillation under vacuum and dried by spray drying or oven drying under vacuum to obtain a powder, which was used to prepare the tablets as used in Examples 1-6. Each tablet contained 90 mg of olive pulp solids, 5.4 mg of total polyphenols, and ˜2.5 mg of hydroxytyrosol.
In another embodiment, the compositions of the invention are suitable for treating erythema nodosum. Erythema nodosum is an inflammatory condition characterized by tender, red bumps, and is usually found on the shins, but may also occur on other areas of the body such as the buttocks, calves, ankles, thighs, and upper extremities. Quite often, erythema nodosum is not a separate disease, but, rather, a sign of some other disease, or of sensitivity to a drug. […]

[2] = test system: peroxynitrite dependent DNA base modification and tyrosine nitration; details: Deiana et al., 1999; cited from earlier work
[3] = humans; Visioli et al., 2000; cited from earlier work
[4] = test system: various human cellular systems; details: Manna et al., 2000; cited from earlier work
[5] = test system: platelet aggregation; details: Petroni et al., 1995; cited from earlier work
[6] = test system: low density lipoprotein (LDL) oxidation; details: Visioli and Galli, 1998; cited from earlier work
[7] = test system: 12-lipoxygenase; details: de la Puerta et al., 1999; Kohyama et al., 1997; cited from earlier work
[8] = test system: 5-lipoxygenase; details: de la Puerta et al., 1999; Kohyama et al., 1997; cited from earlier work

| SMILES | erythema nodosum lesions, prior treatment [1] | peroxynitrite dependent DNA base modification and tyrosine nitration [2] | absorption following ingestion [3] | cytotoxicity induced by reactive oxygen species [4] | platelet aggregation [5] | LDL oxidation [6] | inhibition of 12-lipoxygenase [7] | inhibition of 5-lipoxygenase [8] |
| --- | --- | --- | --- | --- | --- | --- | --- | --- |
| C[C@]12C=CC(=O)C=C1CC[C@@H]1[C@@H]2[C@@H](O)C[C@@]2(C)[C@H]1CC[C@]2(O)C(=O)CO [predonine] | little resolution | – | – | – | – | – | – | – |
| OCCc1ccc(O)c(O)c1 [hydroxytyrosol, 3,4-dihydroxyphenethyl alcohol] | – | inhibitory effect | dose-dependently absorbed | counteracts | prevents | prevents | inhibits | inhibits |
